These results are taken from patent US4840941A, “Method for inhibiting infection of human T-cells” (Kabushiki Kaisha Ueno Seiyaku Oyo Kenkyujo, priority 1986, dated 1989).

Series [1] concerns HTLV-III. The series is described as follows: Anti-AIDS activity, infected cell rate of MT-4 cells infected with HTLV-III at 6th day. The note with it: for anti-AIDS virus activity: MT-4 cells, HTLV-III. It counts as cell-based. The protocol: To MT-4 cells (30×10^4 /ml) cultured in RPMI-1640 medium containing 10% bovine serum, was inoculated HTLV-III, and the suspension was incubated at 37° C. for 1 hour to cause the adsorption of the virus. The cell:virus ratio was 500:1. The cells were then washed, and cultured with or without various doses of the test substances (same as those of Example 1) at 37° C. under 5% CO2 for 3 days, after which cell growth, viability, and percentage of infected cells were recorded. The infected cells were distinguished from the uninfected cells by indirect immuno-fluorescence method. Thus; the cultured cells were fixed with cold methanol on a slide glass, reacted with antibody to the HTLV-III-specific antigens, and further with the secondary antibody (having fluorescent label). The results are shown in FIGS. 9-29, wherein, , and show the controls without virus; , and show the infection experiments with HTLV-III. The cell growth is indicated in number of cells, the viability (%) in number of viable cells×100/number of total cells, and the infected cell rate (%) in number of fluorescent-positive cells×100/number of total cells.
In order to examine the correlation between the anti-AIDS virus activity and the molecular structure (especially, molecular weight and S-content or number of sulfate group in this case) of various test substances including those used in Examples 1-7, the anti-AIDS activities were evaluated for the various naturally occurring polysaccharides, polysaccharides having sulfate group, mucopolysaccharides, mucopolysaccharide sulfate, and mucopolysaccharide polysulfate. Further, similar experiments were carried out with various other sulfates which were synthetically obtained. The experimental procedures employed are identical to that in preceding experiments. The cultured MT-4 cells were infected with HTLV-III and the inhibitory effects of various test subsutances on the infected cell rate (number of fluorescent cell×100/ total cell, %) were determined at 6th day.

The test system of series [2] is Friend leukemia virus (F-MuLV). The series is described as follows: Anti-Friend leukemia virus activity, XC-plaque assay, Procedure 2. The note with it: for Number of plaques per dish: control 35. It is filed as cell-based. On the procedure:
(§1) Anti-FMuLV activity of dextram sulfate (molecular weight: 7000-8000, S-content: 17-20%) was determined by a XC-plaque assay method. BALB3T3 cells were cultured in adhesive form in a 35 mm-dish at 5×10^4 cells/dish (2 ml). After removing the culture medium, a fresh medium with or without indicating concentrations of the test substance (1 ml each) and 0.2 ml of the virus preparation were charged, and the cells were cultured overnight. On the following day, the culture media were replaced with those (2 ml) containing or not containing the above substances, the incubation was continued for three additional days to progress the infection and replication of the virus. After the removal of the medium, the further progression of viral replication was stopped by UV irradiation. To this dish, the suspension of XC-cells (2 ml) was added and cultured for three days and the plaque formation produced by the virus particle induced cell-fusion, was observed.
Procedure 1 was repeated except that after adsorption of the virus in the medium without DS, the non-adsorbed viruses were removed and the culture was carried out in the medium (2 ml) containing or not containing DS.

For series [3], the system named is Friend leukemia virus (F-MuLV). Nature of the series: Anti-Friend leukemia virus activity, XC-plaque assay, Procedure 1. It is filed as cell-based. Particulars: for Number of plagues per dish: control 168. On the procedure:
as §1

Series [4] deals with MT-4 cells. Nature of the series: Cytotoxicity, proliferation and viability of MT-4 cells without virus. It counts as cell-based, human. Particulars: no virus. On the procedure:
MT-4 cells were cultured with or without 1-100 μg/ml of each test substance which is the same as in Example 1 and 3 and the proliferation and viability of cells were recorded.
Without the virus, MT-4 cells were cultured in the same manner as in Example 4 except the test sample was heparin, and proliferation and viability of cells were recorded.

Where [5] appears, read: 10 μg/ml, 6th day, control 100%.
Setting [6] is: 100 μg/ml, 6th day, control 100%.
[7] abbreviates: 10 μg/ml, 6th day, control 100%, 8640 min.
The mark [8] stands for this setting: 100 μg/ml, 6th day, control 100%, 8640 min.
Setting [9] is: 1000 μg/ml, 6th day, control 100%.

As to `O=C[C@H](O)[C@@H](O)[C@H](O)[C@H](O)COS(=O)(=O)O` [Glucose-6-sulfate], the Infected cell rate (% of total cells) at 10 µg/mL in series [1] (Human immunodeficiency virus 1, MT4, 144 h, 10 μg/ml, 6th day, control 100%) came to 100%. In series [1] (Human immunodeficiency virus 1, MT4, 144 h, 100 μg/ml, 6th day, control 100%), the Infected cell rate (% of total cells) at 100 µg/mL came out at 100%. Also, in series [1] (Human immunodeficiency virus 1, MT4, 144 h, 1000 μg/ml, 6th day, control 100%), the Infected cell rate (% of total cells) at 1000 µg/mL is 100%.

For the molecule `OC[C@H]1O[C@H](OC[C@H]2O[C@H](O[C@]3(CO)O[C@H](CO)[C@@H](O)[C@@H]3O)[C@H](O)[C@@H](O)[C@@H]2O)[C@H](O)[C@@H](O)[C@H]1O` [raffinose], in series [1] (6th day), the anti-AIDS virus activity result was “neither methylcellulose showed any anti-AIDS virus activities”.

Regarding .iota.-Carrageenan, the “Infected cell (%)” value in series [1] (setting [5]) is given as 100%; in series [1] (setting [6]), 31%.

For Agarose, the “Infected cell (%)” value in series [1] (setting [5]) and in series [1] (setting [6]) was 100% each time.

For the molecule Alginic acid, the “Infected cell (%)” value in series [1] (setting [5]) and in series [1] (setting [6]) was 100% in each case.

For the molecule Alginic acid sulfate, the “Infected cell (%)” value is 7% in series [1] (setting [5]) and 4% in series [1] (setting [6]). Further, the anti-AIDS virus activity entry in series [1] (6th day) was “particularly strong anti-AIDS virus activities”.

Consider Chitin, for which the “Infected cell (%)” value in series [1] (setting [5]) and in series [1] (setting [6]) was 100% each time.

For Chitin sulfate, the results for the “Infected cell (%)” value in series [1] (setting [5]) and in series [1] (setting [6]) were 100% and 81%, respectively.

Regarding Chitosan, the “Infected cell (%)” value in series [1] (setting [5]) and in series [1] (setting [6]) was 100% throughout.

As to Chitosan sulfate, the “Infected cell (%)” value in series [1] (setting [5]) and in series [1] (setting [6]) was 1% in each case. In addition, the anti-AIDS virus activity entry in series [1] (6th day) was “particularly strong anti-AIDS virus activities”.

For the molecule Chondroitin, the “Infected cell (%)” value in series [1] (setting [5]) and in series [1] (setting [6]) was 100% each time.

As for Chondroitin-4-sulfate, the “Infected cell (%)” value in series [1] (setting [5]) is 90%; in series [1] (setting [6]), 80%.

For the molecule Chondroitin-4-sulfate polysulfate, the “Infected cell (%)” value in series [1] (setting [5]) worked out at 2%; in series [1] (setting [6]), 1%. The anti-AIDS virus activity entry in series [1] (6th day) is on record as “particularly strong anti-AIDS virus activities”.

For the molecule Chondroitin-6-sulfate, the “Infected cell (%)” value in series [1] (setting [5]) and in series [1] (setting [6]) was 100% each time.

For Chondroitin-6-sulfate polysulfate, the figures for the “Infected cell (%)” value in series [1] (setting [5]) and in series [1] (setting [6]) were 2% and 1%, respectively. In addition, in series [1] (6th day), the anti-AIDS virus activity entry is “particularly strong anti-AIDS virus activities”.

For the molecule Dermatan sulfate, the figures for the “Infected cell (%)” value in series [1] (setting [5]) and in series [1] (setting [6]) were 100% and 80%, respectively.

As for “Dextran [Dextran (molecular weight 9,000)]”, the “Infected cell (%)” value in series [1] (setting [5]) and in series [1] (setting [6]) was 100% throughout.

Take “Dextran sulfate [Dextran sulfate (molecular weight 3,500, S-content 6)]”: the “Infected cell (%)” value turned out to be 100% in series [1] (setting [7]), 82% in series [1] (setting [8]) and 1% in series [1] (setting [9]).

Consider “Dextran sulfate [Dextran sulfate (molecular weight 8,000, S-content ≈14)]”, for which the entries for the “Infected cell (%)” value in series [1] (setting [7]) and in series [1] (setting [8]) were 25% and 0%, respectively.

As to Fucoidin, the “Infected cell (%)” value in series [1] (setting [5]) turned out to be 32%; in series [1] (setting [6]), 1%.

For the molecule Glucose-polysulfate, the “Infected cell (%)” value in series [1] (setting [5]), in series [1] (setting [6]) and in series [1] (setting [9]) was 100% in each case.

Heparitin sulfate: the “Infected cell (%)” value came out at 100% in series [1] (setting [5]) and 90% in series [1] (setting [6]).

Turning to Hyaluronic acid, the “Infected cell (%)” value in series [1] (setting [5]) and in series [1] (setting [6]) was 100% throughout.

On to Hyaluronic acid sulfate, for which the “Infected cell (%)” value in series [1] (setting [5]) came to 100%; in series [1] (setting [6]) it was 70%.

For the molecule Keratan sulfate, the “Infected cell (%)” value in series [1] (setting [5]) is recorded as 100%; in series [1] (setting [6]) it was 60%.

As to N--acetylglucosamine polysulfate, the “Infected cell (%)” value in series [1] (setting [5]), in series [1] (setting [6]) and in series [1] (setting [9]) was 100% throughout.

In the case of Sodium dextran sulfate, the Inhibition (commonly the percentage by which the read-out fell short of the control) amounted to 6% in series [2] (DS 0.01 μg/ml); 45% in series [2] (DS 0.1 μg/ml); 52% in series [2] (DS 10 μg/ml); 54% in series [2] (DS 100 μg/ml); 92% in series [3] (DS 1 μg/ml); 93% in series [3] (DS 5 μg/ml). The Inhibition is on record as 93% in series [3] (DS 10 μg/ml), 92% in series [3] (DS 50 μg/ml), 96% in series [3] (DS 100 μg/ml) and 100% in series [3] (DS 1000 μg/ml). Besides, the “Number of plaques per dish” value is recorded as 33 in series [2] (DS 0.01 μg/ml); 19 in series [2] (DS 0.1 μg/ml); 14 in series [2] (DS 1 μg/ml); 17 in series [2] (DS 10 μg/ml); 16 in series [2] (DS 100 μg/ml); 0 in series [2] (DS 500 μg/ml). Besides, the plaque formation entry in series [3] (100 μg/ml of DS) is “not detected”. Also, the “inhibition of the formation of plaque” value in series [3] (1-100 μg/ml) is on record as at least 90%. The “Number of plagues per dish” value was determined as 14 in series [3] (DS 1 μg/ml); 12 in series [3] (DS 5 μg/ml); 11 in series [3] (DS 10 μg/ml); 13 in series [3] (DS 50 μg/ml); 6 in series [3] (DS 100 μg/ml); 0 in series [3] (DS 1000 μg/ml).

As for “Sodium dextran sulfate [Sodium dextran sulfate (molecular weight: 500,000 S-content:]”, the “Infected cell (%)” value was found to be 20% in series [1] (10 μg/ml, 6th day; control 100%; S-content ≈16), 8640 min) and 0% in series [1] (setting [6]).

For “Sodium dextran sulfate [Sodium dextran sulfate (molecular weight: 5000, S-content: 1]”, the Cell number is reported as 123 × 10^4 cells/ml in series [4] (1 μg/ml), 127 × 10^4 cells/ml in series [4] (10 μg/ml) and 121 × 10^4 cells/ml in series [4] (100 μg/ml). The Viability in series [4] (10 μg/ml) was 92%; in series [4] (100 μg/ml), 93%. In addition, the “Infected cell (%)” value was 18% in series [1] (10 μg/ml, 6th day; control 100%; S-content ≈13), 8640 min) and 0% in series [1] (setting [6]).

For colominic acid, the anti-AIDS virus activity result in series [1] (6th day) is listed as “neither methylcellulose showed any anti-AIDS virus activities”.

Turning to dextran sulfate, the anti-AIDS virus activity entry in series [1] (6th day) is “particularly strong anti-AIDS virus activities”.

For inulin, the anti-AIDS virus activity entry in series [1] (6th day) is “neither methylcellulose showed any anti-AIDS virus activities”.

Turning to methylcellulose, in series [1] (6th day), the anti-AIDS virus activity result was “neither methylcellulose showed any anti-AIDS virus activities”.

Turning to pectin, the anti-AIDS virus activity result in series [1] (6th day) was “neither methylcellulose showed any anti-AIDS virus activities”.

Consider “κ-carrageenan [Carrageenan 20%enan 80% + λ]”, for which the “Infected cell (%)” value in series [1] (setting [5]) was found to be 95%; in series [1] (setting [6]), 1%.

As for λ-Carrageenan, the “Infected cell (%)” value in series [1] (setting [5]) is 3%; in series [1] (setting [6]) it was 1%. The anti-AIDS virus activity entry in series [1] (6th day) was “particularly strong anti-AIDS virus activities”.
